Experimental data as given in patent publication US10130571B2, “Dentifrice Comprising Zinc-Amino Acid Complex and Phosphates” (Colgate-Palmolive Company, priority 2014, dated 2018).

Test system: biofilms
Experiment: Biofilm formation on HAP discs pre-treated with a simple solution of lysine
Assay type: cell-based
Conditions: after 48 h, visual
Source text: We pre-treated HAP discs with a simple solution of lysine to see how an overabundance of free lysine would affect biofilm formation.

NCCCC[C@H](N)C(=O)O [lysine]
appearance of biofilms after lysine pre-treatment: visually were overgrown
